# Square brackets hold non-standard residues; d marks the D form. Ends that are not written are not given here. Peptide text beside a SMILES is read from it. Phe(4-NH2) = Nc1ccc(C[C@H](N)C(=O)O)cc1; 1Nal = N[C@@H](Cc1cccc2ccccc12)C(=O)O; Cha = N[C@@H](CC1CCCCC1)C(=O)O; Aib = CC(C)(N)C(=O)O
# Test system: C. albicans (CA-1, Strain SLU-1)
# Test: Radial diffusion assay
# Format: cell-based, Candida albicans
# Conditions: HPLC-purified peptide; nanomoles required to achieve a net 30 mm^2 zone (log titration curve)
# Method: In the radial diffusion assay procedures, the CA-1 cultures and peptide solutions were prepared as in the broth assay procedure described above. Ten mL of molten underlayer agarose comprising 3% Sabouraud Dextrose broth, 1% agarose (Pharmacia, Piscataway, N.J.), 0.02% Tween 20, and 10 mM sodium phosphate at pH 7.4, was added to polystyrene tubes and maintained in a 56° C. water bath until the addition of yeast. Tubes were cooled to approximately 45° C., yeast were added to give a final concentration of 1×10^6 CFU/mL, and the tubes were mixed again by inverting. The contents were poured into level square petri dishes and distributed evenly. […] A series of wells were punched into the hardened agarose using a sterile 3 mm punch attached to a vacuum apparatus.
# Peptides to be assayed were 2-fold serially diluted in Dulbecco's PBS (D-PBS) starting from a concentration of approximately 1 mg/mL. Five μL of each dilution were added to each well and the plates were incubated at 37° C. for 3 hours. An overlayer of 10 mL of molten agarose comprising 6% Sabouraud Dextrose broth, 1% agarose, and 10 mM sodium phosphate, pH 7.4, (at approximately 45° C.) was then added and plates were incubated overnight at 37° C. Following this overnight incubation, a dilute Coomassie solution was poured into the plates and allowed to stain for 24 hours.
# Clear zones of growth inhibition around each well were measured with calipers. The actual area of growth inhibition (mm^2) was calculated by subtracting the area of the well. Table 1 below sets out the results of the radial diffusion assays for tested peptides in terms of the number of picomoles (pmol) of peptide required to establish a 30 mm^2 area of growth inhibition calculated by PROBIT analysis (e.g., calculated from regression of the linear portion of log-concentration dose-response curve, log pmol/well vs. net area of inhibition).
row,Compound,"Plate Assay (nmol), pure peptide activity"
1,CC[C@H](C)[C@H](NC(=O)[C@H](CC(C)C)NC(=O)[C@@H](N)Cc1c[nH]c2ccccc12)C(=O)N[C@@H](CCC(N)=O)C(=O)N[C@@H](CC(C)C)C(=O)N[C@@H](Cc1ccccc1)C(=O)N[C@@H](Cc1c[nH]cn1)C(=O)N[C@@H](CCCCN)C(=O)N[C@@H](CCCCN)C(N)=O [Peptide 298],1.106 nmol

# Same assay, conditions: crude peptide; nanomoles required to achieve a net 30 mm^2 zone (log titration curve)
row,Compound,"Plate Assay (nmol), crude peptide activity"
1,H-VKWLIQ-NH2 [compound 314],13.497 nmol
2,H-VKWLIQL-NH2 [Peptide 307],>8.345 nmol
3,H-LIQLFHK-NH2 [Peptide 310],>9.475 nmol
4,H-SKVKWLI-NH2 [Peptide 305],>10.228 nmol
5,H-VKWLIQLFH-NH2 [Peptide 296],>5.573 nmol
6,CC[C@H](C)[C@H](NC(=O)[C@H](CC(C)C)NC(=O)[C@@H](N)Cc1c[nH]c2ccccc12)C(=O)N[C@@H](CCC(N)=O)C(=O)N[C@@H](CC(C)C)C(=O)N[C@@H](Cc1ccccc1)C(=O)N[C@@H](Cc1c[nH]cn1)C(=O)N[C@@H](CCCCN)C(=O)N[C@@H](CCCCN)C(N)=O [Peptide 298],2.628 nmol

# Same assay, conditions: pmoles of peptide added to well to achieve a 30 mm^2 zone, PROBIT analysis; crude or purified (P′) peptide
row,Compound,C. albicans pmol/30 mm^2 zone
1,CC[C@H](C)[C@H](NC(=O)[C@H](CC(C)C)NC(=O)[C@H](Cc1c[nH]c2ccccc12)NC(=O)[C@H](Cc1ccc(N)cc1)NC(=O)[C@@H](NC(=O)[C@H](CCCCN)NC(=O)[C@H](CO)NC(=O)[C@@H](N)CCCCN)C(C)C)C(=O)N[C@@H](CCC(N)=O)C(=O)N[C@@H](CC(C)C)C(=O)N[C@@H](Cc1ccccc1)C(=O)N[C@@H](Cc1cccc2ccccc12)C(=O)N[C@@H](CCCCN)C(=O)N[C@@H](CCCCN)C(N)=O [XMP.233] (H-KSKV[Phe(4-NH2)]WLIQLF[1Nal]KK-NH2),b (No detectable activity up to 5 μg/well)
2,H-KSKVKWAIQLFHKK-NH2 [XMP.267],256 pmol/30 mm^2 zone
3,CC[C@H](C)[C@H](NC(=O)[C@H](CC(C)C)NC(=O)[C@H](CC1CCCCC1)NC(=O)CNC(=O)[C@@H](NC(=O)[C@H](CCCCN)NC(=O)[C@H](CO)NC(=O)[C@@H](N)CCCCN)C(C)C)C(=O)N[C@@H](CCC(N)=O)C(=O)N[C@@H](CC(C)C)C(=O)N[C@@H](Cc1ccccc1)C(=O)N[C@@H](Cc1c[nH]cn1)C(=O)N[C@@H](CCCCN)C(=O)N[C@@H](CCCCN)C(N)=O [XMP.144] (H-KSKVG[Cha]LIQLFHKK-NH2),695 pmol/30 mm^2 zone
4,H-KSKVGWLINLFHKK-NH2 [XMP.262],984 pmol/30 mm^2 zone
5,CC[C@H](C)[C@H](NC(=O)[C@H](CC(C)C)NC(=O)[C@H](Cc1c[nH]c2ccccc12)NC(=O)CNC(=O)[C@@H](NC(=O)[C@H](CCCCN)NC(=O)[C@H](CO)NC(=O)[C@@H](N)CCCCN)C(C)C)C(=O)N[C@@H](Cc1ccc(N)cc1)C(=O)N[C@@H](CC(C)C)C(=O)N[C@@H](Cc1ccccc1)C(=O)N[C@@H](Cc1cccc2ccccc12)C(=O)N[C@@H](CCCCN)C(=O)N[C@@H](CCCCN)C(N)=O [XMP.232] (H-KSKVGWLI[Phe(4-NH2)]LF[1Nal]KK-NH2),b (No detectable activity up to 5 μg/well)
6,H-KSKVAWLIQLFHKK-NH2 [XMP.35],442 pmol/30 mm^2 zone
7,CC[C@H](C)[C@H](NC(=O)[C@H](CC(C)C)NC(=O)[C@@H](Cc1ccccc1)NC(=O)CNC(=O)[C@@H](NC(=O)[C@H](CCCCN)NC(=O)[C@H](CO)NC(=O)[C@@H](N)CCCCN)C(C)C)C(=O)N[C@@H](CCC(N)=O)C(=O)N[C@@H](CC(C)C)C(=O)N[C@@H](Cc1ccccc1)C(=O)N[C@@H](Cc1c[nH]cn1)C(=O)N[C@@H](CCCCN)C(=O)N[C@@H](CCCCN)C(N)=O [XMP.128],1179 pmol/30 mm^2 zone
8,H-WLIQL-NH2 [XMP.320],">4,055 pmol/30 mm^2 zone"
9,H-KSKVGWLILLFHKK-NH2 [XMP.86],>2048 pmol/30 mm^2 zone
10,H-KSKVGWLIQLWHKK-NH2 [XMP.82],518 pmol/30 mm^2 zone
11,XMP.383: K - K - L - L - L - Q - L - K - K (SEQ ID NO:214) (KKLLLQLKK),473 pmol/30 mm^2 zone
12,H-IQLFHK-NH2 [XMP.318],b (No detectable activity up to 5 μg/well)
13,H-WLIQLF-NH2 [XMP.316],b (No detectable activity up to 5 μg/well)
14,CC[C@H](C)[C@H](NC(=O)[C@H](CC(C)C)NC(=O)[C@H](Cc1c[nH]c2ccccc12)NC(=O)[C@H](Cc1ccc(N)cc1)NC(=O)[C@@H](NC(=O)[C@H](CCCCN)NC(=O)[C@H](CO)NC(=O)[C@@H](N)CCCCN)C(C)C)C(=O)N[C@@H](Cc1ccc(N)cc1)C(=O)N[C@@H](CC(C)C)C(=O)N[C@@H](Cc1ccccc1)C(=O)N[C@@H](Cc1c[nH]cn1)C(=O)N[C@@H](CCCCN)C(=O)N[C@@H](CCCCN)C(N)=O [XMP.238] (H-KSKV[Phe(4-NH2)]WLI[Phe(4-NH2)]LFHKK-NH2),"2,702 pmol/30 mm^2 zone"
15,CC[C@H](C)[C@H](NC(=O)[C@H](CC(C)C)NC(=O)C(C)(C)NC(=O)CNC(=O)[C@@H](NC(=O)[C@H](CCCCN)NC(=O)[C@H](CO)NC(=O)[C@@H](N)CCCCN)C(C)C)C(=O)N[C@@H](CCC(N)=O)C(=O)N[C@@H](CC(C)C)C(=O)N[C@@H](Cc1ccccc1)C(=O)N[C@@H](Cc1c[nH]cn1)C(=O)N[C@@H](CCCCN)C(=O)N[C@@H](CCCCN)C(N)=O [XMP.257] (H-KSKVG[Aib]LIQLFHKK-NH2),"1,321 pmol/30 mm^2 zone"
16,CC[C@H](C)[C@H](NC(=O)[C@H](CC(C)C)NC(=O)[C@H](Cc1cccc2ccccc12)NC(=O)CNC(=O)[C@@H](NC(=O)[C@H](CCCCN)NC(=O)[C@H](CO)NC(=O)[C@@H](N)CCCCN)C(C)C)C(=O)N[C@@H](CCC(N)=O)C(=O)N[C@@H](CC(C)C)C(=O)N[C@@H](Cc1ccccc1)C(=O)N[C@@H](Cc1cccc2ccccc12)C(=O)N[C@@H](CCCCN)C(=O)N[C@@H](CCCCN)C(N)=O [XMP.148] (H-KSKVG[1Nal]LIQLF[1Nal]KK-NH2),>2805 pmol/30 mm^2 zone
17,H-KSKVGWLILLWHKK-NH2 [XMP.241],">2,161 pmol/30 mm^2 zone"
18,H-KSKVGWLISLFHKK-NH2 [XMP.104],>5569 pmol/30 mm^2 zone
19,CC[C@H](C)[C@H](NC(=O)[C@H](CC(C)C)NC(=O)[C@@H](Cc1c[nH]c2ccccc12)NC(=O)CNC(=O)[C@@H](NC(=O)[C@H](CCCCN)NC(=O)[C@H](CO)NC(=O)[C@@H](N)CCCCN)C(C)C)C(=O)N[C@@H](CCC(N)=O)C(=O)N[C@@H](CC(C)C)C(=O)N[C@@H](Cc1ccccc1)C(=O)N[C@@H](Cc1c[nH]cn1)C(=O)N[C@@H](CCCCN)C(=O)N[C@@H](CCCCN)C(N)=O [XMP.126] (H-KSKVG[dW]LIQLFHKK-NH2),1404 pmol/30 mm^2 zone
20,H-LIQLFHK-NH2 [XMP.310],">9,475 pmol/30 mm^2 zone"
21,XMP.359: CD - 153-161 (SEQ ID NO:190) ([dC]WLIQLFHKK),b (No detectable activity up to 5 μg/well)
22,CC[C@H](C)[C@H](NC(=O)[C@H](CC(C)C)NC(=O)[C@H](Cc1c[nH]c2ccccc12)NC(=O)[C@H](Cc1ccc(N)cc1)NC(=O)[C@@H](N)Cc1ccc(N)cc1)C(=O)N[C@@H](CCC(N)=O)C(=O)N[C@@H](CC(C)C)C(=O)N[C@@H](Cc1ccc(N)cc1)C(=O)N[C@@H](Cc1ccc(N)cc1)C(N)=O [XMP.340] (H-[Phe(4-NH2)][Phe(4-NH2)]WLIQL[Phe(4-NH2)][Phe(4-NH2)]-NH2),b (No detectable activity up to 5 μg/well)
23,H-KKKWLIQLKKK-NH2 [XMP.350],129 pmol/30 mm^2 zone
24,H-VKWLIQLFHK-NH2 [XMP.292],">4,463 pmol/30 mm^2 zone"
25,H-KSKVGWLIFLFHKK-NH2 [XMP.91],>3844 pmol/30 mm^2 zone
26,H-QLFHKK-NH2 [XMP.319],b (No detectable activity up to 5 μg/well)
27,CC[C@H](C)[C@H](NC(=O)[C@H](CC(C)C)NC(=O)[C@H](Cc1cccc2ccccc12)NC(=O)CNC(=O)[C@@H](NC(=O)[C@H](CCCCN)NC(=O)[C@H](CO)NC(=O)[C@@H](N)CCCCN)C(C)C)C(=O)N[C@@H](CCC(N)=O)C(=O)N[C@@H](CC(C)C)C(=O)N[C@@H](Cc1c[nH]c2ccccc12)C(=O)N[C@@H](Cc1c[nH]cn1)C(=O)N[C@@H](CCCCN)C(=O)N[C@@H](CCCCN)C(N)=O [XMP.226] (H-KSKVG[1Nal]LIQLWHKK-NH2),">2,597 pmol/30 mm^2 zone"

# Same assay, conditions: pmoles of peptide added to well to achieve a 30 mm^2 zone, PROBIT analysis; crude or purified (P′) peptide; listed as XMP.226P′
row,Compound,C. albicans pmol/30 mm^2 zone
1,CC[C@H](C)[C@H](NC(=O)[C@H](CC(C)C)NC(=O)[C@H](Cc1cccc2ccccc12)NC(=O)CNC(=O)[C@@H](NC(=O)[C@H](CCCCN)NC(=O)[C@H](CO)NC(=O)[C@@H](N)CCCCN)C(C)C)C(=O)N[C@@H](CCC(N)=O)C(=O)N[C@@H](CC(C)C)C(=O)N[C@@H](Cc1c[nH]c2ccccc12)C(=O)N[C@@H](Cc1c[nH]cn1)C(=O)N[C@@H](CCCCN)C(=O)N[C@@H](CCCCN)C(N)=O [XMP.226] (H-KSKVG[1Nal]LIQLWHKK-NH2),">2,895 pmol/30 mm^2 zone"

# Same assay, conditions: pmoles of peptide added to well to achieve a 30 mm^2 zone, PROBIT analysis; crude or purified (P′) peptide; listed as XMP.267P′
row,Compound,C. albicans pmol/30 mm^2 zone
1,H-KSKVKWAIQLFHKK-NH2 [XMP.267],106 pmol/30 mm^2 zone

# Same assay, conditions: pmoles of peptide added to well to achieve a 30 mm^2 zone, PROBIT analysis; crude or purified (P′) peptide; listed as XMP.316P′
row,Compound,C. albicans pmol/30 mm^2 zone
1,H-WLIQLF-NH2 [XMP.316],"g (inactive to 7,194 pmol)"
